# In the supplement of paper PMC6045584:
# ± gives the standard deviation of the averaged measurements.
# What was measured:
# BMN-673 = compound: Cn1ncnc1[C@H]1c2n[nH]c(=O)c3cc(F)cc(c23)N[C@@H]1c1ccc(F)cc1 [BMN-673]; assay: surviving fraction relative to DMSO-only wells; higher = less growth inhibition; conditions: exposure time: 5 days
# Summary of the method: (§1)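 Surviving fraction was calculated by normalising CellTiter-Glo luminescence to the median of DMSO-only wells. Tumour cell lines in log phase were seeded in 384-well plates at 250–500 cells per well, and 24 hours later were exposed continuously for five days to inhibitors at 0.5, 1, 5, 10, 50, 100, 500 and 1000 nM.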
# [1] = compound: CCc1cc(Nc2nccc(-c3c(-c4ccc(OC)c(C(=O)Nc5c(F)cccc5F)c4)nc4ccccn34)n2)c(OC)cc1N1CCC(N2CCN(S(C)(=O)=O)CC2)CC1; assay: as above; conditions: exposure time: 5 days
# Summary of the method: as §1
Test System,surviving fraction (BMN-673; 0.5 nM),surviving fraction (BMN-673; 1 nM),surviving fraction (BMN-673; 5 nM),surviving fraction (BMN-673; 10 nM),surviving fraction (BMN-673; 50 nM),surviving fraction (BMN-673; 100 nM),surviving fraction (BMN-673; 500 nM),surviving fraction (BMN-673; 1000 nM),surviving fraction ([1]; 0.5 nM),surviving fraction ([1]; 1 nM),surviving fraction ([1]; 5 nM),surviving fraction ([1]; 10 nM),surviving fraction ([1]; 50 nM),surviving fraction ([1]; 100 nM),surviving fraction ([1]; 500 nM),surviving fraction ([1]; 1000 nM)
S68 BREAST,1.17 ± 0.16,0.724 ± 0.12,0.602 ± 0.18,0.533 ± 0.095,0.445 ± 0.17,0.378 ± 0.059,0.357 ± 0.032,0.271 ± 0.054,0.916 ± 0.045,1.22 ± 0.11,1.29 ± 0.2,1.06 ± 0.18,1.1 ± 0.26,1.06 ± 0.27,0.688 ± 0.022,0.737 ± 0.089
HCC78 LUNG,1.06 ± 0.077,1 ± 0.097,1.04 ± 0.098,0.931 ± 0.21,0.678 ± 0.19,0.47 ± 0.084,0.117 ± 0.013,0.0383 ± 0.013,0.893 ± 0.21,0.819 ± 0.18,0.91 ± 0.14,0.859 ± 0.05,0.899 ± 0.32,0.864 ± 0.051,0.653 ± 0.19,0.657 ± 0.14
CASKI CERVIX,0.942 ± 0.03,0.888 ± 0.063,0.9 ± 0.036,0.88 ± 0.06,0.858 ± 0.054,0.821 ± 0.068,0.594 ± 0.0084,0.502 ± 0.02,0.937 ± 0.051,0.949 ± 0.055,0.97 ± 0.048,0.979 ± 0.04,0.946 ± 0.015,1.01 ± 0.043,0.967 ± 0.07,0.88 ± 0.039
CADOES1 SOFT TISSUE,0.979 ± 0.076,0.942 ± 0.05,0.745 ± 0.18,0.653 ± 0.094,0.378 ± 0.054,0.29 ± 0.027,0.135 ± 0.033,0.073 ± 0.013,0.983 ± 0.048,0.983 ± 0.065,0.892 ± 0.12,0.885 ± 0.04,0.87 ± 0.1,1.05 ± 0.12,1.06 ± 0.12,1.08 ± 0.042
LNCAP PROSTATE,0.85 ± 0.052,0.849 ± 0.05,0.604 ± 0.059,0.407 ± 0.037,0.297 ± 0.015,0.254 ± 0.0095,0.181 ± 0.014,0.165 ± 0.022,0.88 ± 0.064,0.964 ± 0.16,0.996 ± 0.08,0.849 ± 0.096,0.895 ± 0.15,0.93 ± 0.19,0.882 ± 0.063,0.632 ± 0.1
HCC1806 BREAST,0.904 ± 0.043,0.875 ± 0.021,0.451 ± 0.035,0.313 ± 0.021,0.234 ± 0.0079,0.186 ± 0.0061,0.171 ± 0.017,0.168 ± 0.015,1.05 ± 0.032,0.985 ± 0.042,1.04 ± 0.025,1.05 ± 0.1,0.993 ± 0.1,1.03 ± 0.13,0.93 ± 0.13,0.904 ± 0.085
MDAMB468 BREAST,0.993 ± 0.083,0.914 ± 0.024,0.824 ± 0.1,0.728 ± 0.12,0.578 ± 0.039,0.451 ± 0.053,0.305 ± 0.033,0.243 ± 0.013,0.909 ± 0.09,1.04 ± 0.053,1.12 ± 0.047,1.14 ± 0.041,1.04 ± 0.091,1.17 ± 0.073,1.04 ± 0.07,1.06 ± 0.041
JURKAT HAEMATOPOIETIC AND LYMPHOID TISSUE,1.04 ± 0.027,1.04 ± 0.015,0.863 ± 0.035,0.838 ± 0.014,0.601 ± 0.049,0.503 ± 0.033,0.123 ± 0.007,0.0493 ± 0.0047,1.06 ± 0.011,1.07 ± 0.029,1.06 ± 0.027,1.07 ± 0.021,1.05 ± 0.022,1.01 ± 0.029,0.973 ± 0.034,0.886 ± 0.037
KPD BONE,0.971 ± 0.046,0.877 ± 0.053,0.814 ± 0.045,0.463 ± 0.28,0.531 ± 0.03,0.437 ± 0.02,0.338 ± 0.01,0.3337 ± 0.0032,0.907 ± 0.066,0.947 ± 0.071,1 ± 0.021,1.03 ± 0.062,0.989 ± 0.021,1.049 ± 0.0079,0.89 ± 0.081,0.849 ± 0.036
MHM BONE,1.03 ± 0.047,1 ± 0.035,1.01 ± 0.048,1.01 ± 0.051,0.997 ± 0.041,0.981 ± 0.0079,0.868 ± 0.017,0.782 ± 0.012,0.97 ± 0.021,0.974 ± 0.032,1.03 ± 0.011,0.998 ± 0.011,1.027 ± 0.0053,1 ± 0.03,0.982 ± 0.055,0.975 ± 0.029
A549 LUNG,1.08 ± 0.026,1.1 ± 0.014,1.08 ± 0.033,1.07 ± 0.028,1.13 ± 0.08,1.1 ± 0.025,1.05 ± 0.043,0.972 ± 0.048,0.954 ± 0.022,0.994 ± 0.045,0.995 ± 0.032,1.02 ± 0.033,0.983 ± 0.029,1.04 ± 0.036,1.01 ± 0.042,1.01 ± 0.034
SUM44 BREAST,1.16 ± 0.29,1.02 ± 0.16,0.976 ± 0.12,0.798 ± 0.029,1.03 ± 0.21,0.98 ± 0.15,1.09 ± 0.2,0.988 ± 0.11,1.07 ± 0.041,1.04 ± 0.015,1.06 ± 0.037,1.07 ± 0.023,1.07 ± 0.062,1.155 ± 0.0075,0.9687 ± 0.0055,0.994 ± 0.034
COLO320DM LARGE INTESTINE,1.16 ± 0.049,1.1 ± 0.11,1.01 ± 0.038,0.951 ± 0.04,0.781 ± 0.061,0.704 ± 0.059,0.606 ± 0.0097,0.5533 ± 0.0029,1.08 ± 0.04,1.18 ± 0.11,1.17 ± 0.06,1.19 ± 0.071,1.19 ± 0.09,1.14 ± 0.095,1.11 ± 0.061,0.892 ± 0.041
HU09 BONE,0.97 ± 0.066,0.978 ± 0.056,0.898 ± 0.067,0.812 ± 0.11,0.486 ± 0.046,0.437 ± 0.038,0.104 ± 0.018,0.058 ± 0.008,0.897 ± 0.047,0.949 ± 0.12,1.08 ± 0.16,1.06 ± 0.032,1.03 ± 0.063,1.1 ± 0.048,0.88 ± 0.052,0.872 ± 0.085
SUM149 BREAST,0.857 ± 0.051,0.721 ± 0.068,0.301 ± 0.019,0.226 ± 0.023,0.176 ± 0.017,0.163 ± 0.014,0.149 ± 0.0045,0.145 ± 0.024,1.07 ± 0.059,1.14 ± 0.027,1.09 ± 0.035,1.12 ± 0.037,1.06 ± 0.14,1.11 ± 0.13,1.08 ± 0.081,1.05 ± 0.12
VCAP PROSTATE,1.11 ± 0.084,0.947 ± 0.086,0.995 ± 0.03,0.976 ± 0.08,0.758 ± 0.029,0.711 ± 0.12,0.397 ± 0.029,0.385 ± 0.017,1.02 ± 0.1,1.05 ± 0.072,0.986 ± 0.12,1.07 ± 0.042,0.984 ± 0.091,1.05 ± 0.03,1.03 ± 0.055,0.9673 ± 0.0061
